Experiment [1] relates to MDA-MB-231, human breast cancer cells. The experiment in a line: Proliferation assay MDA-MB-231 (crystal violet, 4 days). Type of experiment: cell-based. To be noted: Homo sapiens, MDA-MB-231, 96 h, MDA-MB-231 cells, median, read-out: Prolif-MDA MB-231, IC50-[mol/l] (median). Summed up:
(§1)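 IC50 from a 4-parameter fit of crystal violet absorbance (595 nm), scaled between a day-0 plate (0%) and untreated wells (100%). Cells grown in 10% FCS medium were exposed to test substances at 0.01-10 µmol/L for 4 days, 0.1% DMSO final.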

For experiment [2], the target named is T1, CDK12 (nuclear staining in CAL-120 cells) (Homo sapiens, UniProt Q9NYV4).
T1 construct: endogenous in cells; host or cells: CAL-120 human breast cancer cells (DSMZ ACC 459)
T1 sequence (Q9NYV4 whole entry): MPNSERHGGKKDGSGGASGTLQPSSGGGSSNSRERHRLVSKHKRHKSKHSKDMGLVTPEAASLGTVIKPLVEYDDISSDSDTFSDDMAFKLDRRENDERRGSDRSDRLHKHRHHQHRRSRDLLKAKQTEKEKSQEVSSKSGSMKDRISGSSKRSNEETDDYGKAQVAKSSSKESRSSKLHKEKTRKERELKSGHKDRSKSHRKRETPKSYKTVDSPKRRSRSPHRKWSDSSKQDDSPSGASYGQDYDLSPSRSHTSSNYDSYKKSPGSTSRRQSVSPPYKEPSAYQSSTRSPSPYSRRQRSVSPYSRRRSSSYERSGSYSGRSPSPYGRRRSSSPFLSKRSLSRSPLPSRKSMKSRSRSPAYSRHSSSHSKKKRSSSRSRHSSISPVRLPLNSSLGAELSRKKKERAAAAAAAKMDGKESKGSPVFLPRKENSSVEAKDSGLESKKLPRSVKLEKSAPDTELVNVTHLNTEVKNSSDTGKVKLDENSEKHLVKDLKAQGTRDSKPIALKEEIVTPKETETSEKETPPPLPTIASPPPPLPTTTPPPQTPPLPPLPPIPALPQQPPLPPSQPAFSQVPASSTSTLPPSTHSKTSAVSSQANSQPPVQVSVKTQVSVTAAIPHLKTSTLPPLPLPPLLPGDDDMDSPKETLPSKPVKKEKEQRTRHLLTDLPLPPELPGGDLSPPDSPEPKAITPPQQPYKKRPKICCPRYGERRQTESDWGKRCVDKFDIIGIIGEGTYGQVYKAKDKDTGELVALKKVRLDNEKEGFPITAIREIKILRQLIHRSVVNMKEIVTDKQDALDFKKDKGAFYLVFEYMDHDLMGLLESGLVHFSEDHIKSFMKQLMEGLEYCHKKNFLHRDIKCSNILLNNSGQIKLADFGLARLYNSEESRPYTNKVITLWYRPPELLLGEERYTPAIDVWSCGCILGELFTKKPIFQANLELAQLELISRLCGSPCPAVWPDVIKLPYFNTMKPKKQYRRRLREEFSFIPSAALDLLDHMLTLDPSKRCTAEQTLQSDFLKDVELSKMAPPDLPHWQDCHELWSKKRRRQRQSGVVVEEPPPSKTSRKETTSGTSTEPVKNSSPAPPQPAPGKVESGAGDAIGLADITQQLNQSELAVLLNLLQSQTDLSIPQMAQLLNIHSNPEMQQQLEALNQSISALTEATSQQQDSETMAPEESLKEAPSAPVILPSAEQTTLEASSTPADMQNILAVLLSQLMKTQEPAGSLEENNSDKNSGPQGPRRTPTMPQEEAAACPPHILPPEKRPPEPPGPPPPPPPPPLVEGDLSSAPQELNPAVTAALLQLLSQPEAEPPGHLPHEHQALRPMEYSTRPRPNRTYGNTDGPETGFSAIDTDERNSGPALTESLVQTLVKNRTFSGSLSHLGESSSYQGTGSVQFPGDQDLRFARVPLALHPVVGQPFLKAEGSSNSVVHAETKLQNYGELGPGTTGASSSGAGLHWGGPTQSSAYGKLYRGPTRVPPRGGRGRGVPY
T1 sequence (O75909 whole entry partner): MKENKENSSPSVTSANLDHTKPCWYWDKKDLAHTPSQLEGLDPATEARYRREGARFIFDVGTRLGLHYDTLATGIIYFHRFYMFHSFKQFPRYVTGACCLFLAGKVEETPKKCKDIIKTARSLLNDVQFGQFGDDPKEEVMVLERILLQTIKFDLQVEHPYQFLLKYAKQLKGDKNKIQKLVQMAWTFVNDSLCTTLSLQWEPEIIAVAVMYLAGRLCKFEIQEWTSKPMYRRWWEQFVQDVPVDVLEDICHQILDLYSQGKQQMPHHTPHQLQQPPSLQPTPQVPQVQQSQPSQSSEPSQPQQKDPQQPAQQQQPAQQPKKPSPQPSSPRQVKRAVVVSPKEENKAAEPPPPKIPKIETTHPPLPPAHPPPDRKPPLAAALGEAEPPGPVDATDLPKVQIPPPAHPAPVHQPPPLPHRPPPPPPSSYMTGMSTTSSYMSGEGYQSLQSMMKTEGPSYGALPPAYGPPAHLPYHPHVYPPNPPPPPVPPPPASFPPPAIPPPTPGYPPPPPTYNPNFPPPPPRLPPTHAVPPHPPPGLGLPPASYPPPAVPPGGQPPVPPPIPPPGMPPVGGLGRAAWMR
Briefly: CDK12 nuclear protein level: immunofluorescence/high content analysis (CAL-120). It counts as cell-based. The note with it: for DC50: CAL-120 cells, 24 h, immunofluorescence, 50% reduction of nuclear CDK12 staining intensity, median, read-out: CDK12 degradation IF, DC50- [mol/l] (median); for (IC50 CDK12 high ATP) to (Degradation DC50 CDK12) ratio: ratio of IC50 CDK12 high ATP kinase assay to DC50 CDK12 degradation (IF, CAL-120). Summed up: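 DC50 is the degrader concentration that halves nuclear CDK12 immunofluorescence relative to controls, measured by high-content imaging. CAL-120 cells were exposed to compound for 24 h at 37 °C before PFA fixation, and signal was normalized to DMSO and control wells.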

Experiment [3] has as its system CAL-120, human breast adenocarcinoma cells. The experiment in a line: Proliferation assay CAL-120 (crystal violet, 4 days). The note with it: Homo sapiens, CAL-120, 96 h, CAL-120 cells, median, read-out: Prolif-CAL-120, IC50-[mol/l] (median). Type of experiment: cell-based. Summed up: as §1
The test system of experiment [4] is BRCA1 mRNA expression in MDA-MB-231 cells. The experiment in a line: qRT-PCR assay: BRCA1 mRNA expression in MDA-MB-231. It counts as cell-based, human. The note with it: Homo sapiens, MDA-MB-231, Inhibition of BRCA1 mRNA expression in MDA-MB-231 cells; median; read-out: RTqPCR-MDA-MB-231, IC50, BRCA1 (median). Summed up: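 Seed 200,000 cells/well; 24 h later add compound, continuous exposure 24 h; extract RNA, 600 ng to cDNA; RT-qPCR, normalised to GAPDH.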

Regarding `COc1cccc2[nH]c(CNc3nc(N4C[C@H]5C[C@@H]4CO5)nc4c(C5CC5)cnn34)nc12` [Example 198, 8-cyclopropyl-N-[(4-methoxy-1H-benzimidazol-2-yl)methyl]-2-[(1R,4R)-2-oxa-5-azabicyclo[2.2.1]heptan-5-yl]pyrazolo[1,5-a][1,3,5]triazin-4-amine], the IC50 came to 98 nM in experiment [1], 31.1 nM in experiment [3] and 60.3 nM in experiment [4]. The DC50 in experiment [2] was found to be 34.9 nM. Also, the “(IC50 CDK12 high ATP) to (Degradation DC50 CDK12) ratio” value in experiment [2] is 214.
On the same counts, the results for `O[C@H]1C[C@@H](Nc2nc(NCc3nc4ccccc4[nH]3)n3ncc(Br)c3n2)C1` [Example 234, cis-3-[(4-{[(1H-benzimidazol-2-yl)methyl]amino}-8-bromopyrazolo[1,5-a][1,3,5]triazin-2-yl)amino]cyclobutan-1-ol] are 59.9 nM, 31.3 nM, 5.76 nM, 10.3 nM and 472.
Taken in the same sequence, the figures for `CN1C[C@H]2C[C@@H]1CN2c1nc(NCc2nc3ccccc3[nH]2)n2ncc(Br)c2n1` [Example 218, N-[(1H-benzimidazol-2-yl)methyl]-8-bromo-2-[(1R,4R)-5-methyl-2,5-diazabicyclo[2.2.1]heptan-2-yl]pyrazolo[1,5-a][1,3,5]triazin-4-amine] were 35.7 nM, 21.1 nM, 12.3 nM, 10.5 nM and above 1900.
With `CC1(C)CN(c2nc(NCc3nc4ccccc4[nH]3)n3ncc(Br)c3n2)CCN1` [Example 216, N-[(1H-benzimidazol-2-yl)methyl]-8-bromo-2-(3,3-dimethylpiperazin-1-yl)pyrazolo[1,5-a][1,3,5]triazin-4-amine], the IC50 in experiment [1] is 16.8 nM; in experiment [3], 8.55 nM; in experiment [4], 7.36 nM. Moreover, in experiment [2], the DC50 turned out to be 3.31 nM. Moreover, the “(IC50 CDK12 high ATP) to (Degradation DC50 CDK12) ratio” value in experiment [2] is recorded as above 1386.
On to `Brc1cnn2c(NCc3nc4ccccc4[nH]3)nc(N3CCC4(CCCN4)C3)nc12` (stereo not shown) [Example 215, N-(1H-benzimidazol-2-ylmethyl)-8-bromo-2-(1,7-diazaspiro[4.4]nonan-7-yl)pyrazolo[1,5-a][1,3,5]triazin-4-amine], for which the IC50 in experiment [1] is 129 nM; in experiment [3], 34.3 nM; in experiment [4] it was 131 nM. Also, the DC50 in experiment [2] amounted to 7.88 nM. Further, in experiment [2], the “(IC50 CDK12 high ATP) to (Degradation DC50 CDK12) ratio” value is above 2537.
Taken in the same sequence, the figures for `Cc1ccc2[nH]c(CNc3nc(N4CCNCC4)nc4c(Br)cnn34)nc2c1` [Example 204, 8-bromo-N-[(5-methyl-1H-benzimidazol-2-yl)methyl]-2-(piperazin-1-yl)pyrazolo[1,5-a][1,3,5]triazin-4-amine] were 1.59 nM, 0.869 nM, 1.13 nM, 0.619 nM and 7019.
As for `COc1cccc2[nH]c(CNc3nc(N4C[C@@H]5CCCN[C@@H]5C4)nc4c(C5CC5)cnn34)nc12` [Example 214, 8-cyclopropyl-N-[(4-methoxy-1H-benzimidazol-2-yl)methyl]-2-[(4aS,7aS)-octahydro-6H-pyrrolo[3,4-b]pyridin-6-yl]pyrazolo[1,5-a][1,3,5]triazin-4-amine], the IC50 in experiment [1] turned out to be 17.7 nM; in experiment [3] it was 6.2 nM; in experiment [4] it was 19.3 nM. In addition, the DC50 in experiment [2] turned out to be 3.92 nM. The “(IC50 CDK12 high ATP) to (Degradation DC50 CDK12) ratio” value in experiment [2] worked out at 2062.
On the same counts, the results for `CN1C[C@@H]2C[C@H]1CN2c1nc(NCc2nc3ccccc3[nH]2)n2ncc(Br)c2n1` [Example 219, N-[(1H-benzimidazol-2-yl)methyl]-8-bromo-2-[(1S,4S)-5-methyl-2,5-diazabicyclo[2.2.1]heptan-2-yl]pyrazolo[1,5-a][1,3,5]triazin-4-amine] are 50.3 nM, 27.2 nM, 11.6 nM, 16.2 nM and above 1232.

Values taken from patent publication US20230117034A1, “PYRAZOLOTRIAZINES” (Bayer Aktiengesellschaft, priority 2019, published 2023).
